Measurements from US8735387B2, “Oxazolopyrimidines as Edg-1 receptor agonists” (Sanofi, priority 2008, dated 2014).

molecular target: T1, human Edg-1 receptor (Homo sapiens, UniProt P21453); assay: GTP-γ-S assay using human Edg-1 receptors (scintillation proximity assay, membrane preparation from CHO Flp-In cell line); format: biochemical; conditions: example compound at 10 μM; relative to 10 μM S1P; GTP-γ-S SPA, human Edg-1 membranes
T1 construct: expressed in transfected cells; membrane preparation
T1 sequence (P21453 whole entry): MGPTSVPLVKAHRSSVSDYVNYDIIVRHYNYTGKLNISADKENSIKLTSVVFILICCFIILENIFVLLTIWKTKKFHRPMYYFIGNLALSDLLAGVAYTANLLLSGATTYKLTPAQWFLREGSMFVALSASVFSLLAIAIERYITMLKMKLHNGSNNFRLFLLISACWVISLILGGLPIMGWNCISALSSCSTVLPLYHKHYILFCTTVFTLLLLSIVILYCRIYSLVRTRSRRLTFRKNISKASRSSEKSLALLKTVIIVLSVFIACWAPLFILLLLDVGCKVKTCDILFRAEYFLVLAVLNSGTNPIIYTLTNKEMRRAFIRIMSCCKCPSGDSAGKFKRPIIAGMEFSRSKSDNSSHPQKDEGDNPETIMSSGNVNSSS
Summary of the method: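 Scintillation proximity GTP-γ-S binding assay measuring receptor activation. Membranes prepared from a CHO Flp-In line stably overexpressing N-terminally FLAG-tagged human Edg-1.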

% Activation (Edg-1 receptor activation in percent of the activation by 10 μM S1P) [%]	SMILES
75	CCCOc1nc(CN2C(=O)CC(C)(C)CC2=O)nc2oc(-c3cccc(F)c3)nc12 [Example 142]
73	CCCOc1nc(CN2CCCC2Cc2ccccc2)nc2oc(-c3cccc(F)c3)nc12 (centres unmarked) [Example 143]
67	CCCOc1nc(CN2CCC(OC)CC2)nc2oc(-c3cccc(F)c3)nc12 [Example 145]
56	CCCOc1nc(CN2CC(=O)N(Cc3ccccc3)C2=O)nc2oc(-c3cccc(F)c3)nc12 [Example 146]
55	CCCOc1nc(CN2CCCCC2c2nccs2)nc2oc(-c3cccc(F)c3)nc12 (centres unmarked) [Example 147]
41	CCCOc1nc(Cc2ccc(Cl)cc2)nc2oc(-c3ccc(N4CCOCC4)nc3)nc12 [Example 148]
102	CCCOc1nc(Cc2ccc(Cl)cc2)nc2oc(-c3cc(C)cc(C)c3)nc12 [Example 149]
143	CCCOc1nc(Cc2ccc(Cl)cc2)nc2oc(-c3ccncc3F)nc12 [Example 150]
26	CCCOc1nc(Cc2ccc(Cl)cc2)nc2oc(-c3ccc(OC)nc3)nc12 [Example 151]
100	CCCOc1nc(Cc2ccc(Cl)cc2)nc2oc(-c3ccc(O)c(F)c3)nc12 [Example 152]
84	CCCOc1nc(Cc2ccc(Cl)cc2)nc2oc(-c3cncc(C)c3)nc12 [Example 153]
88	CCCOc1nc(Cn2cnc(C)n2)nc2oc(-c3cccc(F)c3)nc12 [Example 154]
87	CCCOc1nc(Cn2ncnc2C)nc2oc(-c3cccc(F)c3)nc12 [Example 155]
73	CCCOc1nc(CC2CCOCC2)nc2oc(-c3cccc(C)c3)nc12 [Example 159]
69	CCCOc1nc(CC2CCOCC2)nc2oc(-c3cccc(F)c3)nc12 [Example 160]
96	Fc1cccc(-c2nc3c(OCC4CC4)nc(CC4CCOCC4)nc3o2)c1 [Example 161]
108	CCCOc1nc(CC2CCC2)nc2oc(-c3cccc(C)c3)nc12 [Example 162]
118	CCOc1nc(CC2CCC2)nc2oc(-c3cccc(C)c3)nc12 [Example 163]
98	CCOc1nc(CC2CCC2)nc2oc(-c3cc(F)ccc3Cl)nc12 [Example 164]
97	Cc1cccc(-c2nc3c(OCC4CC4)nc(CC4CCC4)nc3o2)c1 [Example 165]
42	CCCOc1nc(Cc2cc(OC)cc(OC)c2)nc2oc(-c3cccc(C)c3)nc12 [Example 166]
102	CCCOc1nc(Cc2ccc(Cl)cc2)nc2oc(-c3cc(C)ccc3F)nc12 [Example 167]
87	CCCOc1nc(Cc2ccc(Cl)cc2)nc2oc(-c3ccc(Cl)c(C)c3)nc12 [Example 169]
89	CCCOc1nc(Cc2ccc(Cl)cc2)nc2oc(-c3cccc(C)c3C)nc12 [Example 170]
115	CCCOc1nc(Cc2ccc(Cl)cc2)nc2oc(-c3cccc(C)c3F)nc12 [Example 171]

same assay, conditions: example compound at 10 μM; relative to 10 μM S1P; GTP-γ-S SPA, human Edg-1 membranes; read-out: % Activation (Edg-1 receptor activation in percent of the activation by 10 μM S1P)

activation at 10 µM [%]	SMILES
117	CCCOc1nc(Cc2ccc(Cl)cc2)nc2oc(-c3cc(C)c(OC)c(C)c3)nc12 [Example 168, 5-(4-chloro-benzyl)-2-(4-methoxy-3,5-dimethyl-phenyl)-7-propoxy-oxazolo[5,4-d]pyrimidine]
